Test results reported in US20130315965A1, “HARMINE DERIVATIVES FOR PROMOTING BONE GROWTH” (OssiFi, Inc., priority 2012, published 2013).

Columns and labels:
[1] = biological target: T1, Sclerostin (Homo sapiens, UniProt Q9BQB4); assay: luciferase Wnt pathway activity assay (inhibition of sclerostin by restoration of Wnt signaling); assay type: cell-based; settings: for identified as promoting bone growth (Wnt signaling / inhibition of sclerostin): human cells, luciferase Wnt pathway activity; for concentration at which compound inhibits sclerostin and restores normal Wnt activity (RLU): human embryonic cells, luciferase RLU, p<0.05
T1 construct: host or cells: human cells (reporter cells)
T1 sequence (Q9BQB4 24-213): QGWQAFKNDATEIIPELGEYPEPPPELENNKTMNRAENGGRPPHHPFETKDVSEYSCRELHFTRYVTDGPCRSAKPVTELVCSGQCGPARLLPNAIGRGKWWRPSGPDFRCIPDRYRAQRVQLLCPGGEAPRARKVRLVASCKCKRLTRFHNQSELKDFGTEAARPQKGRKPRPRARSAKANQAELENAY
Method: (§1) The Y axis represents Relative Light Units (RLU) which represents Wnt pathway signaling. Addition of Wnt (W) activates the Wnt pathway, while addition of Sclerostin (S) inhibits the Wnt pathway. Addition of Compound 1 inhibits sclerostin and restores normal Wnt activity at 3 μM. Asterisks represent statistically significant p<0.05.
as §1, with “2” for “1”, “10” for “3”
Briefly, human cells are treated with a predetermined dose of a candidate compound for a complete dosing schedule. Control vehicle treated cells are treated with a control solution, preferably a non-irritating buffer solution or other carrier. Once the dosing schedule has been completed, both test and control assays are examined for luciferase Wnt pathway activity to determine the quantity of Wnt signaling and thus inhibition of sclerostin.
Bars marked with a double asterisk indicate a significant difference as compared to S, but not as compared to W. Concentrations are indicated along the X axis in micromolar values.
Concentrations are indicated along the X axis in micromolar values.

[2] = tested on: osteocalcin (OCN); assay: Bone formation assay: osteocalcin (OCN) ELISA in cells treated with sclerostin and compound; assay type: cell-based, human
Description: Bone formation can be assayed in vitro or in vivo using a serum marker for bone formation, osteocalcin (OCN). OCN is commercially available, e.g., from Biomedical Technologies, Inc. (Stoughton, Mass.). In one exemplary assay, using the manufacturer's protocol for the mouse osteocalcin EIA kit (described at http://www.btiinc.com/page/cata2/html#mouse_osteocalcin) bone formation in cells such as MC3T3 osteoblast cells can be assayed by measuring the concentration of OCN. An ELISA assay followed by spectrophotometer optical density (OD) readings to measure the concentration of OCN is used to detect the level of OCN secreted from cells, e.g., cells treated with a vehicle control, a sclerostin control, or with a combination of sclerostin and a compound as described herein. In some embodiments, the cells are treated with increasing doses of the control or compound.
Compound 2 was added in increasing amounts (0.13 μM-100 μM) with sclerostin at 1/8 volume.

SMILES | identified as promoting bone growth (Wnt signaling / inhibition of sclerostin) [1] | concentration at which compound inhibits sclerostin and restores normal Wnt activity (RLU) [1] [µM] | effect on OCN induction blocked by sclerostin ([2]; 0.13 μM-100 μM compound with sclerostin at 1/8 volume) | stimulation of bone formation marker OCN versus vehicle-treated cells with No Sclerostin (NS) ([2]; 20 μM compound with Sclerostin at 1/8 volume)
Cc1nc(O)cc2c1[nH]c1ccccc12 [Compound 1, 3-hydroxy-1-methyl-9H-pyrido[3,4-b]indole] | identified as promoting bone growth | 3 | – | –
COc1ccc(-c2nccc3c2[nH]c2ccccc23)cc1 [Compound 2, 1-(4-methoxyphenyl)-9H-pyrido[3,4-b]indole] | identified as promoting bone growth | 10 | restoration of OCN activity that was blocked by sclerostin | stimulation of OCN well over that of the vehicle-treated cells
